Tests used:
Assay type in all cases: in vivo
Zymoseptoria tritici = experiment: Leaf blotch of wheat (SEPTTR) disease control on wheat seedlings; parameters: key to SEPTTR 1DP, HV activity at 100 ppm (% control rating) / SEPTTR 3DC, HV activity at 100 ppm (% control rating) / SEPTTR disease control, 1DP / SEPTTR disease control, 3DC / SEPTTR 1DP disease control rating, HV activity / SEPTTR 3DC disease control rating, HV activity / SEPTTR 3DC, LV activity at 125.1 g/H (% Control rating) / SEPTTR 1DP, LV activity at 125.1 g/H (% Control rating) / SEPTTR 1DP disease control rating, LV activity at 125.1 g/H / SEPTTR 3DC disease control rating, LV activity at 125.1 g/H / SEPTTR 3DC disease control rating, HV activity at 100 ppm / SEPTTR 1DP disease control rating, HV activity at 100 ppm / HV activity at 100 ppm SEPTTR 3DC (disease control rating) / HV activity at 100 ppm SEPTTR 1DP (disease control rating) / LV activity at 125.1 g/H SEPTTR 1DP (disease control rating) / LV activity at 125.1 g/H SEPTTR 3DC (disease control rating): A: > 80; B: ≤ 80; C: Not Tested; D: No Activity Observed in the Reported Assay; details: for SEPTTR 1DP disease control rating, HV activity / SEPTTR 3DC disease control rating, HV activity: HV application at 100 ppm
Puccinia triticina = experiment: Wheat brown rust (PUCCRT) disease control on wheat seedlings; parameters: key to PUCCRT 3DC, HV activity at 100 ppm (% control rating) / PUCCRT disease control, 3DC / PUCCRT 1DP disease control rating, HV activity / PUCCRT 3DC disease control rating, HV activity / PUCCRT 3DC, LV activity at 125.1 g/H (% Control rating) / PUCCRT 1DP, LV activity at 125.1 g/H (% Control rating) / PUCCRT 3DC disease control rating, LV activity at 125.1 g/H / PUCCRT 1DP disease control rating, LV activity at 125.1 g/H / PUCCRT 3DC disease control rating, HV activity at 100 ppm / PUCCRT 1DP disease control rating, HV activity at 100 ppm / HV activity at 100 ppm PUCCRT 3DC (disease control rating) / LV activity at 125.1 g/H PUCCRT 1DP (disease control rating) / LV activity at 125.1 g/H PUCCRT 3DC (disease control rating): A: > 80; B: ≤ 80; C: Not Tested; D: No Activity Observed in the Reported Assay; details: for PUCCRT 1DP disease control rating, HV activity / PUCCRT 3DC disease control rating, HV activity: HV application at 100 ppm
Phakopsora pachyrhizi = experiment: Asian soybean rust (PHAKPA) disease control; parameters: key: A: > 80; B: ≤ 80; C: Not Tested; D: No Activity Observed in the Reported Assay; details: 25 ppm; for PHAKPA disease control, 1DP: 1 Day Protectant; for PHAKPA disease control, 3DC: 3 Day Curative
[1] = low volume application, 125.1 g/H, 1 day protectant
[2] = low volume application, 125.1 g/H, 3 day curative
[3] = 1 Day Protectant, wheat leaf blotch
[4] = 3 Day Curative, wheat leaf blotch
[5] = 1 Day Protectant, wheat brown rust
[6] = 3 Day Curative, wheat brown rust
[7] = low volume application, 125.1 g/H, 1 Day Protectant
[8] = low volume application, 125.1 g/H, 3 Day Curative
[9] = low volume application, 125.1 g/H, 1 Day Protectant, wheat leaf blotch
[10] = low volume application, 125.1 g/H, 3 Day Curative, wheat leaf blotch
[11] = low volume application, 125.1 g/H, 1 Day Protectant, wheat brown rust
[12] = low volume application, 125.1 g/H, 3 Day Curative, wheat brown rust

Row | Compound | PHAKPA disease control, 1DP (Phakopsora pachyrhizi) | PHAKPA disease control, 3DC (Phakopsora pachyrhizi) | SEPTTR 1DP, LV activity at 125.1 g/H (% Control rating) (Zymoseptoria tritici; [7]) | SEPTTR 3DC, LV activity at 125.1 g/H (% Control rating) (Zymoseptoria tritici; [8]) | PUCCRT 1DP, LV activity at 125.1 g/H (% Control rating) (Puccinia triticina; [7]) | PUCCRT 3DC, LV activity at 125.1 g/H (% Control rating) (Puccinia triticina; [8]) | LV activity at 125.1 g/H SEPTTR 1DP (disease control rating) (Zymoseptoria tritici; [9]) | LV activity at 125.1 g/H SEPTTR 3DC (disease control rating) (Zymoseptoria tritici; [10]) | LV activity at 125.1 g/H PUCCRT 1DP (disease control rating) (Puccinia triticina; [11]) | LV activity at 125.1 g/H PUCCRT 3DC (disease control rating) (Puccinia triticina; [12]) | also measured
1 | COc1ccnc(C(=O)NC(C)C(=O)OC(C)(C)C(Oc2ccccc2)C(C)C)c1OCOC(C)=O (mixture of isomers) [Cmpd 904] | A (> 80) | B (≤ 80) |  |  |  |  |  |  |  |  | SEPTTR 1DP disease control rating, LV activity at 125.1 g/H (Zymoseptoria tritici; [1]): B (≤ 80); SEPTTR 3DC disease control rating, LV activity at 125.1 g/H (Zymoseptoria tritici; [2]): A (> 80); PUCCRT 1DP disease control rating, LV activity at 125.1 g/H (Puccinia triticina; [1]): A (> 80); PUCCRT 3DC disease control rating, LV activity at 125.1 g/H (Puccinia triticina; [2]): A (> 80)
2 | COc1ccnc(C(=O)N[C@@H](C)C(=O)O[C@@H](C)[C@H](Oc2ccccc2)C(C)C)c1O [Cmpd 304] | D | B (≤ 80) |  |  |  |  |  |  |  |  | SEPTTR 1DP disease control rating, HV activity (Zymoseptoria tritici; [3]): A (> 80); SEPTTR 3DC disease control rating, HV activity (Zymoseptoria tritici; [4]): A (> 80); PUCCRT 1DP disease control rating, HV activity (Puccinia triticina; [5]): A (> 80); PUCCRT 3DC disease control rating, HV activity (Puccinia triticina; [6]): A (> 80)
3 | C=CC(OCCC)C(Oc1ccccc1)C(C)OC(=O)C(C)NC(=O)c1nccc(OC)c1OCOC(C)=O (stereo not drawn) [Cmpd 455] | A (> 80) | B (≤ 80) |  |  |  |  |  |  |  |  | SEPTTR 1DP disease control rating, HV activity (Zymoseptoria tritici; [3]): A (> 80); SEPTTR 3DC disease control rating, HV activity (Zymoseptoria tritici; [4]): A (> 80); SEPTTR 1DP disease control rating, LV activity (Zymoseptoria tritici; Low volume application at 125.1 g/H, 1 Day Protectant, wheat leaf blotch): A (> 80); SEPTTR 3DC disease control rating, LV activity (Zymoseptoria tritici; Low volume application at 125.1 g/H, 3 Day Curative, wheat leaf blotch): A (> 80); PUCCRT 1DP disease control rating, HV activity (Puccinia triticina; [5]): A (> 80); PUCCRT 3DC disease control rating, HV activity (Puccinia triticina; [6]): A (> 80); PUCCRT 1DP disease control rating, LV activity (Puccinia triticina; Low volume application at 125.1 g/H, 1 Day Protectant, wheat brown rust): A (> 80); PUCCRT 3DC disease control rating, LV activity (Puccinia triticina; Low volume application at 125.1 g/H, 3 Day Curative, wheat brown rust): A (> 80)
4 | CCCOC[C@@H](Oc1ccccc1)[C@H](C)OC(=O)[C@H](C)NC(=O)c1nccc(OC)c1OC(C)=O [Cmpd 474] | B (≤ 80) | B (≤ 80) | B (≤ 80) | A (> 80) | A (> 80) | A (> 80) |  |  |  |  | 
5 | CCC(CC)[C@@H](Oc1ccccc1)[C@H](C)OC(=O)CNC(=O)c1nccc(OC)c1OC(C)=O [Cmpd 480] | B (≤ 80) | B (≤ 80) | B (≤ 80) | B (≤ 80) | A (> 80) | A (> 80) |  |  |  |  | 
6 | COCC[C@H](Cc1ccc(F)cc1)[C@@H](Oc1ccccc1)[C@H](C)OC(=O)[C@H](C)NC(=O)c1nccc(OC)c1OCOC(C)=O [Cmpd 498] | A (> 80) | B (≤ 80) | A (> 80) | A (> 80) | A (> 80) | A (> 80) |  |  |  |  | 
7 | COc1ccnc(C(=O)N[C@@H](C)C(=O)O[C@@H](C)[C@H](Oc2ccccc2)c2ccccc2)c1OC(C)=O [Cmpd 501] | B (≤ 80) | B (≤ 80) | A (> 80) | A (> 80) | A (> 80) | A (> 80) |  |  |  |  | 
8 | CC[C@@H](CCC(C)C)[C@H](Oc1ccccc1)[C@H](C)OC(=O)[C@H](C)NC(=O)c1nccc(OC)c1OCOC(C)=O [Cmpd 502] | A (> 80) | B (≤ 80) | A (> 80) | A (> 80) | A (> 80) | A (> 80) |  |  |  |  | 
9 | COc1ccnc(C(=O)N[C@@H](C)C(=O)O[C@@H](C)[C@@H](Cc2ccccc2)Oc2ccccc2)c1OCOC(C)=O [Cmpd 550] | B (≤ 80) | B (≤ 80) | A (> 80) | A (> 80) | A (> 80) | A (> 80) |  |  |  |  | 
10 | CCC(CC)[C@@H](OCC1CC1)[C@H](C)OC(=O)[C@H](C)NC(=O)c1nccc(OC)c1OCOC(C)=O [Cmpd 553] | A (> 80) | A (> 80) | B (≤ 80) | A (> 80) | A (> 80) | A (> 80) |  |  |  |  | 
11 | CCC(CC)[C@@H](OCC(C)C)[C@H](C)OC(=O)[C@H](C)NC(=O)c1nccc(OC)c1OCOC(C)=O [Cmpd 554] | A (> 80) | B (≤ 80) | B (≤ 80) | A (> 80) | A (> 80) | A (> 80) |  |  |  |  | 
12 | CCOc1ccnc(C(=O)N[C@@H](C)C(=O)O[C@@H](C)[C@@H](CC(C)C)Oc2cccc(Cl)c2)c1OC(C)=O [Cmpd 1109] |  |  |  |  |  |  | D | B (≤ 80) | B (≤ 80) | B (≤ 80) | 
13 | CCOc1ccnc(C(=O)N[C@@H](C)C(=O)O[C@@H](C)[C@@H](CC(C)C)Oc2ccc(Cl)c(OC)c2)c1OC(C)=O [Cmpd 1110] |  |  |  |  |  |  | D | D | D | D | 
14 | COc1ccnc(C(=O)N[C@@H](C)C(=O)O[C@@H](C)[C@@H](CC(C)C)OCC(C)C)c1OC(C)=O [Cmpd 1111] |  |  |  |  |  |  | B (≤ 80) | A (> 80) | A (> 80) | A (> 80) | 
15 | COc1ccnc(C(=O)N[C@@H](C)C(=O)O[C@@H](C)[C@@H](CC(C)C)OCC2CC2)c1OC(C)=O [Cmpd 1112] |  |  |  |  |  |  | D | D | B (≤ 80) | A (> 80) | 
16 | COc1ccnc(C(=O)N[C@@H](C)C(=O)O[C@@H](C)[C@@H](CC(C)C)Oc2cccc(F)c2)c1OC(C)=O [Cmpd 1113] |  |  |  |  |  |  | A (> 80) | A (> 80) | A (> 80) | A (> 80) | 
17 | COc1ccnc(C(=O)N[C@@H](C)C(=O)O[C@@H](C)[C@@H](CC(C)C)Oc2cc(F)ccc2F)c1OC(C)=O [Cmpd 1114] |  |  |  |  |  |  | A (> 80) | A (> 80) | A (> 80) | A (> 80) | 
18 | COc1ccnc(C(=O)N[C@@H](C)C(=O)O[C@@H](C)[C@@H](CC(C)C)Oc2ccc(C)cc2Cl)c1OC(C)=O [Cmpd 1115] |  |  |  |  |  |  | B (≤ 80) | B (≤ 80) | A (> 80) | A (> 80) | 
19 | COc1cc(O[C@H](CC(C)C)[C@H](C)OC(=O)[C@H](C)NC(=O)c2nccc(OC)c2OC(C)=O)ccc1Cl [Cmpd 1116] |  |  |  |  |  |  | A (> 80) | A (> 80) | A (> 80) | A (> 80) | 
